Columns and labels:
pigweed = test: Test B pre/postemergence pigweed; format: in vivo, Amaranthus retroflexus
Summary of the method: (§1)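 Response is a visual 0-to-10 score relative to untreated plants, where 0 means no effect and 10 means complete control, taken twelve to sixteen days after application. Treatments went onto soil at planting and onto foliage of 1- to 4-leaf plants, using a surfactant-containing non-phytotoxic solvent.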

rape = test: Test B pre/postemergence rape; format: in vivo, Brassica napus
Summary of the method: as §1

sugar beet = test: Test B pre/postemergence sugar beet; format: in vivo, Beta vulgaris
Summary of the method: as §1

[1] = Postemergence, Rate 250 g/ha, scale 0 to 10
[2] = Postemergence, Rate 500 g/ha, scale of 0 to 10 where 0 is no effect and 10 is complete control
[3] = Preemergence, Rate 62 g/ha, scale 0 to 10 (0 no effect, 10 complete control)
[4] = Preemergence, Rate 125 g/ha, scale of 0 to 10 where 0 is no effect and 10 is complete control
[5] = Preemergence, Rate 250 g/ha, scale 0 to 10, 0 is no effect, 10 is complete control
[6] = Preemergence, Rate 500 g/ha, scale 0 to 10, 0 is no effect, 10 is complete control
[7] = Rate 125 g/ha, Postemergence, scale 0 to 10, 0 is no effect, 10 is complete control
[8] = Preemergence, Rate 62 g/ha, scale of 0 to 10 where 0 is no effect and 10 is complete control
[9] = Rate 62 g/ha, Postemergence, scale 0 to 10 (0 no effect, 10 complete control)
[10] = Postemergence, Rate 31 g/ha, visual rating, scale 0 to 10 (0 no effect, 10 complete control)

| Structure (SMILES) | Redroot pigweed plant response rating (pigweed; [1]) | Plant response rating, Redroot pigweed (pigweed; [4]) | Redroot pigweed plant response rating (pigweed; [5]) | Redroot pigweed plant response rating (pigweed; [6]) | Redroot pigweed plant response rating (pigweed; [7]) | Rape plant response rating (rape; [1]) | Plant response rating, Rape (rape; [4]) | Rape plant response rating (rape; [5]) | Rape plant response rating (rape; [6]) | Rape plant response rating (rape; [7]) | Sugarbeets plant response rating (sugar beet; [1]) | Plant response rating, Sugarbeets (sugar beet; [4]) | Sugarbeets plant response rating (sugar beet; [5]) | Sugarbeets plant response rating (sugar beet; [6]) | Sugarbeets plant response rating (sugar beet; [7]) | Plant response rating, Redroot pigweed (pigweed; [8]) | Redroot pigweed plant response rating (pigweed; [9]) | Plant response rating, Rape (rape; [8]) | Rape plant response rating (rape; [9]) | Plant response rating, Sugarbeets (sugar beet; [8]) | other results |
| --- | --- | --- | --- | --- | --- | --- | --- | --- | --- | --- | --- | --- | --- | --- | --- | --- | --- | --- | --- | --- | --- |
| C=CC[Si](C)(C)Cn1c(=O)on(C(=O)N(c2ccc(F)cc2)C(C)C)c1=O [Compound 426] | 5 | 4 | 8 | 10 | 0 | 2 | 0 | 8 | 10 | 0 | 3 | 3 | 4 | 6 | 3 | – | – | – | – | – | Redroot pigweed plant response rating (pigweed; [2]): 6; Plant response rating, Redroot pigweed (pigweed; [3]): 2; Rape plant response rating (rape; [2]): 4; Plant response rating, Rape (rape; [3]): 0; Sugarbeets plant response rating (sugar beet; [2]): 3; Plant response rating, Sugarbeets (sugar beet; [3]): 0 |
| CC(C)N(C(=O)n1oc(=O)n(CNC(=O)c2ccccc2)c1=O)c1ccc(F)cc1 [Compound 445] | – | 2 | 4 | 10 | 0 | 2 | 0 | 0 | 2 | 0 | 0 | 0 | 0 | 0 | 0 | 0 | 0 | 0 | 0 | 0 | Redroot pigweed plant response rating (pigweed; [2]): 4; Rape plant response rating (rape; [2]): 2; Sugarbeets plant response rating (sugar beet; [2]): 0; Sugarbeets plant response rating (sugar beet; [9]): 0 |
| COCC(OC)n1c(=O)on(C(=O)N(c2ccc(F)cc2)C(C)C)c1=O (stereo not shown) [Compound 446] | 0 | 10 | 10 | 10 | 0 | 0 | 0 | 8 | 10 | 0 | 0 | 4 | 6 | 8 | 0 | 6 | 0 | 0 | 0 | 0 | Redroot pigweed plant response rating (pigweed; [2]): 0; Rape plant response rating (rape; [2]): 0; Sugarbeets plant response rating (sugar beet; [2]): 0; Sugarbeets plant response rating (sugar beet; [9]): 0 |
| CC(C)N(C(=O)n1oc(=O)n(CC2=NOCCC2)c1=O)c1ccc(Cl)cc1 [Compound 450] | 0 | 4 | 7 | – | 0 | 0 | 0 | 0 | – | 0 | 0 | 0 | 0 | – | 0 | 0 | 0 | 0 | 0 | 0 | Redroot pigweed plant response rating (pigweed; [10]): 0; Rape plant response rating (rape; [10]): 0; Sugarbeets plant response rating (sugar beet; [10]): 0; Sugarbeets plant response rating (sugar beet; [9]): 0 |
| CC(C)N(C(=O)n1oc(=O)n(CCC[Si](C)(C)C)c1=O)c1ccc(F)cc1 [Compound 461] | 0 | 0 | 0 | 0 | 0 | 0 | 0 | 0 | 0 | 0 | 0 | 0 | 0 | 0 | 0 | 0 | 0 | 0 | 0 | 0 | Sugarbeets plant response rating (sugar beet; [9]): 0 |
| CC(C)N(C(=O)n1oc(=O)n(CCCl)c1=O)c1ccc(Cl)cc1 [Compound 474] | 2 | 3 | 5 | 7 | 1 | 0 | 0 | 2 | 4 | 0 | 0 | 0 | 0 | 3 | 0 | 1 | 0 | 0 | 0 | 0 | Sugarbeets plant response rating (sugar beet; [9]): 0 |
| CC(C)N(C(=O)n1oc(=O)n(C(C)C(=O)N(C)C)c1=O)c1ccc(Cl)cc1 (stereo not shown) [Compound 480] | 1 | – | 8 | 9 | 0 | 0 | 0 | 0 | 0 | 0 | 0 | 0 | 0 | 0 | 0 | 2 | 0 | 0 | 0 | 0 | Sugarbeets plant response rating (sugar beet; [9]): 0 |

Reference: US6737383B1, “Herbicidal oxadiazolidines” (priority 1999, dated 2004)
